In patent publication US20080095869A1, “Anticancer Treatment” (priority 2004, published 2008):
Where two headings read alike, the source gives them in different places.

How the values were obtained:
non-cancer MCF-10A cells = details: compared with cancer cells
Procedure: (§1) Growth was determined using a 96-well plate assay as described by Lin et al. (17). HeLa (5×10^4) or CHO (10^4) cells were distributed into each plate well (Costar tissue culture plate). The cells were grown at 37° C. for 24 h after which the substances to be evaluated were added followed by incubation for an additional 48 or 72 h as indicated. Medium was removed and the cells were washed with phosphate-buffered saline and then fixed by addition of […] 2.5% (v/v) glutaraldehyde for 0.5 h followed by a distilled water wash. The cells were stained with […] 1% aqueous crystal violet for 0.5 h, washed exhaustively with distilled water followed by […] 33% (v/v) acetic acid for 5 min. The absorbance was determined at 580 nm using an automated plate reader. Growth was determined according to the formula [(b−c)×100]/(a−c)] where a=absorbance of cells in medium without treatment b=cells in medium with treatment and c=medium alone (background).

[1] = test system: human mammary cancer (BT-20) cells; assay: cells; details: BT-20, read-out: EC50 for inhibition of growth of BT-20 cells
Procedure: as §1

tNOX from HeLa = biological target: T1, tNOX from HeLa (Homo sapiens, UniProt Q16206); assay: Spectrophotometric NADH oxidase assay, NOX activity from the HeLa cell surface; assay type: biochemical; details: for Response of NOX activity from the HeLa cell surface when combined with sulforaphane: sequential additions, preceding or following sulforaphane (FIGS. 7, 8)
T1 construct: The cells were thawed at room temperature, resuspended and incubated at 37° C. for 1 h to release the protein
T1 sequence (Q16206 1-610): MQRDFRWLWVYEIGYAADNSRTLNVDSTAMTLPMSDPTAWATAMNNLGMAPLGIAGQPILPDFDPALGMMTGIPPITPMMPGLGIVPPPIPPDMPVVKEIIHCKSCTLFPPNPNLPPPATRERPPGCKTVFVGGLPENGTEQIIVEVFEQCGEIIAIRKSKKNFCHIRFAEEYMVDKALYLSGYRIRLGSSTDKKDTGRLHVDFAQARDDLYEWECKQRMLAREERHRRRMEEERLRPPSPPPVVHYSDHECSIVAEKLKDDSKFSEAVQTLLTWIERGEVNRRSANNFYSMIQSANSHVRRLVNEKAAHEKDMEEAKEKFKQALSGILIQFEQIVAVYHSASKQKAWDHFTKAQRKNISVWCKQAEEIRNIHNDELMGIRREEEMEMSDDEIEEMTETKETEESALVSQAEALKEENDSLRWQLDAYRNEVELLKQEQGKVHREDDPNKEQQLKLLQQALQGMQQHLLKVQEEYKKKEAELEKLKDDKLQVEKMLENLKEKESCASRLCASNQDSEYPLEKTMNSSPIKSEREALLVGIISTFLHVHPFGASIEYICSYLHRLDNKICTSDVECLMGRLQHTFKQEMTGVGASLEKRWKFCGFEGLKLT
Procedure: HeLa S cells (grown in suspension) were collected by centrifugation and shipped frozen by a commercial supplier (Cellex Biosciences, Minneapolis, Minn.) In 0.1 m sodium acetate, pH 5, in a ratio of 1 mL packed cell volume to 1 mL acetate. The cells were thawed at room temperature, resuspended and incubated at 37° C. for 1 h to release the protein. The cells were removed by centrifugation at 37000 g for 60 min and the cell-free supernatants were refrozen and stored in 1 mL samples at −70° C.

HeLa cells = assay: Growth of HeLa cells in culture (96-well crystal violet); assay type: cell-based; details: Homo sapiens, 48 and 72 h of treatment (FIG. 6), read-out: EC50 for inhibition of growth of HeLa cells
Procedure: HeLa (ATCC CCL-2) human cervical adenocarcinoma cells were cultured in minimal essential medium (Eagle), with 2 mM L-glutamine and Earle's balanced salt solution adjusted to contain 1.5 g/L sodium bicarbonate, 0.2 mM non-essential amino adds, 1.0 mM sodium pyruvate and supplemented with 10% bovine calf serum (heat-inactivated) plus 50 mg/L gentamycin sulfate (Sigma).
HeLa (5×10^4) or CHO (10^4) cells were distributed into each plate well (Costar tissue culture plate).

[2] = biological target: tNOX of 4T1 mouse mammary cells (Mus musculus, UniProt Q8R0Z2); assay: biochemical
Sequence of tNOX of 4T1 mouse mammary cells (Q8R0Z2 whole entry): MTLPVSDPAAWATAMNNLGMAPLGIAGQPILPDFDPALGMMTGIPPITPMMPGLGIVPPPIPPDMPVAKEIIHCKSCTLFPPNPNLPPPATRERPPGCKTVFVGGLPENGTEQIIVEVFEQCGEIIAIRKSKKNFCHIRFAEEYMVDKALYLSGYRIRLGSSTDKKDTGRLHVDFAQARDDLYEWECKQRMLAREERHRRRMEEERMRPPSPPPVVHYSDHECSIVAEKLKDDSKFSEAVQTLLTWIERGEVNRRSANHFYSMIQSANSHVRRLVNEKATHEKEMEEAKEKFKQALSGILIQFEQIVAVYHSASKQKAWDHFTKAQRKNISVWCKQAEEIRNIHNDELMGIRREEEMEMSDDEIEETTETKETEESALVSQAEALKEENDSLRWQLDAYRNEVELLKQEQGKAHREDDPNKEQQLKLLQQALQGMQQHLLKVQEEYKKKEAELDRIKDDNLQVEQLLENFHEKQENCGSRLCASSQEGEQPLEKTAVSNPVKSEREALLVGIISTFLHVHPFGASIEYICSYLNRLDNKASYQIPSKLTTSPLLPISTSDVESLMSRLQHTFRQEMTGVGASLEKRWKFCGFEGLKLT
Procedure: (§2) NADH oxidase activity was determined as the disappearance of NADH measured at 340 nm in a reaction mixture containing 25 mM Tris-Mes buffer (pH 7.2), 1 mM KCN to inhibit low levels of mitochondrial oxidase activity, and 150 ([…] NADH at 37° C. with temperature control (±0.5°) and stirring (14). Activity was measured using paired Hitachi U3210 spectrophotometers. Assays were initiated by addition of NADH. With plasma membranes and whole cells, assays were for 1 min and were repeated on the same sample every 1.5 min for the time indicated. A millimolar extinction coefficient of 6.22 was used to determine specific activity. Proteins were estimated by the bicinchoninic acid method with bovine serum albumin as standard.

[3] = biological target: CNOX of non-cancer MCF-10A human mammary epithelia (Homo sapiens, UniProt Q8TC92); details: non-cancer cells which lack tNOX (FIG. 4)
Sequence of CNOX of non-cancer MCF-10A human mammary epithelia (Q8TC92 whole entry): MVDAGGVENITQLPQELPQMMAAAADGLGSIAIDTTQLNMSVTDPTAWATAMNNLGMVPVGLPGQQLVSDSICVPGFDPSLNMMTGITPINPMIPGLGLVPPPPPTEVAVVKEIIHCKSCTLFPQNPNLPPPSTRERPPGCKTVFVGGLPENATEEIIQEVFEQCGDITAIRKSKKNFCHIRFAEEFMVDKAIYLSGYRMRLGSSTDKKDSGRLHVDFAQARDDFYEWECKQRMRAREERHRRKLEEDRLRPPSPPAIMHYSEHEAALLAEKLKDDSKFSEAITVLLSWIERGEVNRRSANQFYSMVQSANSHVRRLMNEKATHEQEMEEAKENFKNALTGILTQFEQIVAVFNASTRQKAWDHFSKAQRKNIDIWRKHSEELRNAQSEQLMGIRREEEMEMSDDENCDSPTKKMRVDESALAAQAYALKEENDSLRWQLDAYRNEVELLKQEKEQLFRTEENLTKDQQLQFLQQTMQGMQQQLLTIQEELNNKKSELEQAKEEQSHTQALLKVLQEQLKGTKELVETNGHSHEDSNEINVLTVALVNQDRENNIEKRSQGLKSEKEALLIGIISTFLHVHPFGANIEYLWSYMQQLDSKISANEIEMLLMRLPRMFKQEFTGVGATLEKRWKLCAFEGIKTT
Procedure: as §2

[4] = test system: CNOX activity of soybean plasma membranes; details: plasma membranes from dark-grown soybean hypocotyls, lack tNOX (FIG. 5)
Procedure: as §2

C[S@@+]([O-])CCCCN=C=S [L-Sulforaphane]
Inhibition of growth of non-cancer MCF-10A cells (non-cancer MCF-10A cells): inhibited to nearly the same extent as the cancer cells
EC50 [1]: 100 to 1000 µM
EC50 (tNOX from HeLa; NOX activity from HeLa cell surface (FIGS. 1 and 2)): ~1000 µM
EC50 (HeLa cells): 100 to 1000 µM
EC50 [2]: ~1000 µM
Effect on CNOX (NOX activity) of MCF-10A human mammary epithelia [3]: unaffected
Effect on CNOX (NOX activity) of MCF-10A human mammary epithelia ([3]; listed as Sulforaphane): does not inhibit
Effect on CNOX activity of soybean plasma membranes [4]: unaffected
Effect on CNOX activity of soybean plasma membranes ([4]; listed as Sulforaphane): does not inhibit

COc1cc(CNC(=O)CCCC/C=C/C(C)C)ccc1O [capsaicin, 8-methyl-N-vanillyl-6-noneamide]
Response of NOX activity from the HeLa cell surface when combined with sulforaphane (tNOX from HeLa): beneficial response

COc1cc(CN)ccc1O [vanillylamine]
Response of NOX activity from the HeLa cell surface when combined with sulforaphane (tNOX from HeLa): beneficial response

(−)-epigallocatechin gallate [EGCg]
Response of NOX activity from the HeLa cell surface when combined with sulforaphane (tNOX from HeLa): antagonistic
